Laboratory results reported in paper PMC4604124, “In Vitro Characterization of the Pharmacological Properties of the Anti-Cancer Chelator, Bp4eT, and Its Phase I Metabolites” (PLoS ONE, 2015).
“And” between values parts separate entries of the source, which are not always exact repeats. Identical values can stand only once. Like-named read-outs stand apart in the source and are kept apart here.

Key:
[1] = tested on: caspase 9; test: Caspase activity, luminescent kit, caspase 9; assay type: cell-based, human; conditions: for kaspáza 9, raw signal / kaspáza 9, signal / viabilita: individual experiments by date; for kaspáza 9, raw signal, průměry / kaspáza 9, % kontroly / kaspáza 9, signal / viabilita, průměry: mean; for kaspáza 9, % kontroly / kaspáza 9, signal / viabilita / kaspáza 9, signal / viabilita, průměry: normalised to viability;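 on all read-outs here: MCF-7 cells treated at 100 nM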
[2] = MTT cytotoxicity assay, 3T3 cells; assay type: cell-based, mouse; conditions: mouse, 3T3 mouse embryo fibroblasts, 3T3, 10 000 b/j; for viability at 72 h, 1 μM: koncentrace 1 μM; for viability at 72 h, 3 μM: koncentrace 3 μM; for viability at 72 h, 10 μM: koncentrace 10 μM; for viability at 72 h, 30 μM: koncentrace 30 μM; for viability at 72 h, 100 μM: koncentrace 100 μM; for viability at 72 h, 300 μM: koncentrace 300 μM; for viability at 72 h, 1000 μM: koncentrace 1000 μM
In short: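 Non-cancerous 3T3 mouse embryo fibroblasts were plated at 10,000 cells/well in 96-well plates and cultured for 24 h/37°C. The medium was then replaced with serum- and pyruvate-free DMEM for a further 24 h/37°C. Cells were exposed to agents for 72 h/37°C with 0.1% DMSO present, and viability was measured by MTT.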

[3] = tested on: caspases 3/7; test: Caspase activity, luminescent kit, caspases 3/7; assay type: cell-based, human; conditions: for kaspáza (3) a 7, raw signal / kaspáza (3) a 7, signal / viabilita: individual experiments by date; for kaspáza (3) a 7, raw signal, průměry / kaspáza (3) a 7, % kontroly / kaspáza (3) a 7, signal / viabilita, průměry: mean; for kaspáza (3) a 7, % kontroly / kaspáza (3) a 7, signal / viabilita / kaspáza (3) a 7, signal / viabilita, průměry: normalised to viability
[4] = tested on: H9c2 cardiomyoblasts; test: MTT cytotoxicity assay, H9c2 cells; assay type: cell-based, rat; conditions: for IC50: MTT, read-out: IC50
In short: (§1)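 72 h/37°C exposure, 0.1% DMSO. Plating: MCF-7 5,000; HCT116, A549 2,000; H9c2 10,000 cells/well, H9c2 switched to serum/pyruvate-free DMEM 24 h. MTT OD 570 nm, 690 nm background subtracted. Viability as % untreated control; IC50 derived.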

[5] = tested on: A549 human lung adenocarcinoma cells; test: MTT cytotoxicity assay, A549 cells; assay type: cell-based; conditions: for IC50: MTT
In short: as §1

[6] = individual experiments, read-out: MTT viability (0 = 100)
[7] = mean, read-out: MTT viability (0 = 100), průměr

CCNC(=O)NN=C(c1ccccc1)c1ccccn1 [E-Bp4eS, 2-benzoylpyridine 4-ethylsemicarbazone]
kaspáza 9, raw signal ([1]; 3 hodiny): 5048 and 2733 and 3173 and 2706.5
kaspáza 9, raw signal, průměry ([1]; 3 hodiny): 3415.12
kaspáza 9, % kontroly ([1]; 3 hodiny): 105.55 % kontroly
kaspáza 9, signal / viabilita ([1]; 3 hodiny): 51.4121 and 27.8346 and 32.3159 and 27.5647
kaspáza 9, signal / viabilita, průměry ([1]; 3 hodiny): 34.7818
kaspáza 9, raw signal ([1]; 24 hodin): 3856 and 3865 and 5378.5 and 4257
kaspáza 9, raw signal, průměry ([1]; 24 hodin): 4339.12
kaspáza 9, % kontroly ([1]; 24 hodin): 110.34 % kontroly
kaspáza 9, signal / viabilita ([1]; 24 hodin): 38.7665 and 38.857 and 54.073 and 42.798
kaspáza 9, signal / viabilita, průměry ([1]; 24 hodin): 43.6236
kaspáza 9, raw signal ([1]; 72 hodin): 22791 and 20686 and 21610 and 23932
kaspáza 9, raw signal, průměry ([1]; 72 hodin): 22254.8
kaspáza 9, % kontroly ([1]; 72 hodin): 104.60 % kontroly
kaspáza 9, signal / viabilita ([1]; 72 hodin): 233.013 and 211.492 and 220.939 and 244.678
kaspáza 9, signal / viabilita, průměry ([1]; 72 hodin): 227.53
viability at 72 h, 1 μM [2, 6]: 91%
viability at 72 h, 1 μM [2, 7]: 98%
viability at 72 h, 3 μM [2, 6]: 96.2%
viability at 72 h, 3 μM [2, 7]: 94.8%
viability at 72 h, 10 μM [2, 6]: 91.6%
viability at 72 h, 10 μM [2, 7]: 92.9%
viability at 72 h, 30 μM [2, 6]: 86.3%
viability at 72 h, 30 μM [2, 7]: 90.2%
viability at 72 h, 100 μM [2, 6]: 87.1%
viability at 72 h, 100 μM [2, 7]: 83.9%
viability at 72 h, 300 μM [2, 6]: 85.3%
viability at 72 h, 300 μM [2, 7]: 81.5%
viability at 72 h, 1000 μM [2, 6]: 74.1%
viability at 72 h, 1000 μM [2, 7]: 66.7%
kaspáza (3) a 7, raw signal ([3]; 3 hodiny): 2046.5 and 1555.5 and 1698 and 1596
kaspáza (3) a 7, raw signal, průměry ([3]; 3 hodiny): 1724
kaspáza (3) a 7, % kontroly ([3]; 3 hodiny): 106.30 % kontroly
kaspáza (3) a 7, signal / viabilita ([3]; 3 hodiny): 20.8429 and 15.8422 and 17.2935 and 16.2547
kaspáza (3) a 7, signal / viabilita, průměry ([3]; 3 hodiny): 17.5583
kaspáza (3) a 7, raw signal ([3]; 24 hodin): 2362.5 and 2475 and 2765.5 and 2572
kaspáza (3) a 7, raw signal, průměry ([3]; 24 hodin): 2543.75
kaspáza (3) a 7, % kontroly ([3]; 24 hodin): 112.45 % kontroly
kaspáza (3) a 7, signal / viabilita ([3]; 24 hodin): 23.7515 and 24.8825 and 27.8031 and 25.8577
kaspáza (3) a 7, signal / viabilita, průměry ([3]; 24 hodin): 25.5737
kaspáza (3) a 7, raw signal ([3]; 72 hodin): 7302.5 and 8023 and 7227 and 8569
kaspáza (3) a 7, raw signal, průměry ([3]; 72 hodin): 7780.38
kaspáza (3) a 7, % kontroly ([3]; 72 hodin): 107.49 % kontroly
kaspáza (3) a 7, signal / viabilita ([3]; 72 hodin): 74.6601 and 82.0264 and 73.8882 and 87.6086
kaspáza (3) a 7, signal / viabilita, průměry ([3]; 72 hodin): 79.5458
IC50 ([4]; H9c2, 72 h/37°C, mean ± SD, n ≥ 4): 884 ± 279 µM
MTT, relative to control (0 = 100) ([4]; H9c2, 10 000 b/j, 1 μM, průměr (mean), sheet E-Bp4eS): 94.39
MTT, relative to control (0 = 100) ([4]; H9c2, 10 000 b/j, 1 μM, single experiment (date), sheet E-Bp4eS): 95.7668 and 93.0745 and 94.7872 and 93.9178
MTT, relative to control (0 = 100) ([4]; H9c2, 10 000 b/j, 3 μM, průměr (mean), sheet E-Bp4eS): 94.04
MTT, relative to control (0 = 100) ([4]; H9c2, 10 000 b/j, 3 μM, single experiment (date), sheet E-Bp4eS): 97.8721 and 90.4272 and 95.5074 and 92.3686
MTT, relative to control (0 = 100) ([4]; H9c2, 10 000 b/j, 10 μM, průměr (mean), sheet E-Bp4eS): 92.87
MTT, relative to control (0 = 100) ([4]; H9c2, 10 000 b/j, 10 μM, single experiment (date), sheet E-Bp4eS): 97.5948 and 91.5814 and 93.3122 and 89.0018
MTT, relative to control (0 = 100) ([4]; H9c2, 10 000 b/j, 30 μM, průměr (mean), sheet E-Bp4eS): 87.33
MTT, relative to control (0 = 100) ([4]; H9c2, 10 000 b/j, 30 μM, single experiment (date), sheet E-Bp4eS): 92.2111 and 86.1798 and 89.4636 and 81.4505
MTT, relative to control (0 = 100) ([4]; H9c2, 10 000 b/j, 100 μM, průměr (mean), sheet E-Bp4eS): 77.15
MTT, relative to control (0 = 100) ([4]; H9c2, 10 000 b/j, 100 μM, single experiment (date), sheet E-Bp4eS): 79.5863 and 76.8996 and 78.6318 and 73.5016
MTT, relative to control (0 = 100) ([4]; H9c2, 10 000 b/j, 300 μM, průměr (mean), sheet E-Bp4eS): 65.67
MTT, relative to control (0 = 100) ([4]; H9c2, 10 000 b/j, 300 μM, single experiment (date), sheet E-Bp4eS): 61.9338 and 65.3898 and 65.2717 and 70.085
MTT, relative to control (0 = 100) ([4]; H9c2, 10 000 b/j, 1000 μM, průměr (mean), sheet E-Bp4eS): 48.11
MTT, relative to control (0 = 100) ([4]; H9c2, 10 000 b/j, 1000 μM, single experiment (date), sheet E-Bp4eS): 55.0254 and 43.1142 and 38.2886 and 56.005
IC50 ([4]; H9c2, 10 000 b/j, single experiment (date), sheet E-Bp4eS): 683 µM and 1140 µM and 606 µM
IC50 ([4]; Rattus norvegicus, H9c2, H9c2, 10 000 b/j, průměr (mean), sheet E-Bp4eS): 884 µM
IC50 ([4]; Rattus norvegicus, H9c2, H9c2, 10 000 b/j, single experiment (date), sheet E-Bp4eS): 1100 µM
Therapeutic index, IC50 non-cancerous cells / IC50 neoplastic cells ([5]; 3T3/A549): >4.0
IC50 ([5]; A549, 72 h/37°C, mean ± SD, n ≥ 4): 248 ± 28.4 µM
MTT, relative to control (0 = 100) ([5]; A549, 2 000 b/j, 1 μM, průměr (mean), sheet E-Bp4eS): 93.23
MTT, relative to control (0 = 100) ([5]; A549, 2 000 b/j, 1 μM, single experiment (date), sheet E-Bp4eS): 97.4794 and 93.8067 and 89.4519 and 90.2593 and 95.1529
MTT, relative to control (0 = 100) ([5]; A549, 2 000 b/j, 3 μM, průměr (mean), sheet E-Bp4eS): 94.11
MTT, relative to control (0 = 100) ([5]; A549, 2 000 b/j, 3 μM, single experiment (date), sheet E-Bp4eS): 94.6678 and 89.857 and 93.9888 and 97.9391
MTT, relative to control (0 = 100) ([5]; A549, 2 000 b/j, 10 μM, průměr (mean), sheet E-Bp4eS): 92.21
MTT, relative to control (0 = 100) ([5]; A549, 2 000 b/j, 10 μM, single experiment (date), sheet E-Bp4eS): 87.4036 and 92.1017 and 93.2476 and 93.9742 and 94.3384
MTT, relative to control (0 = 100) ([5]; A549, 2 000 b/j, 30 μM, průměr (mean), sheet E-Bp4eS): 90.64
MTT, relative to control (0 = 100) ([5]; A549, 2 000 b/j, 30 μM, single experiment (date), sheet E-Bp4eS): 90.1965 and 95.4707 and 85.9691 and 88.5685 and 92.9924
MTT, relative to control (0 = 100) ([5]; A549, 2 000 b/j, 100 μM, průměr (mean), sheet E-Bp4eS): 73.00
MTT, relative to control (0 = 100) ([5]; A549, 2 000 b/j, 100 μM, single experiment (date), sheet E-Bp4eS): 74.3256 and 77.7533 and 70.4536 and 74.7606 and 67.6889
MTT, relative to control (0 = 100) ([5]; A549, 2 000 b/j, 300 μM, průměr (mean), sheet E-Bp4eS): 38.58
MTT, relative to control (0 = 100) ([5]; A549, 2 000 b/j, 300 μM, single experiment (date), sheet E-Bp4eS): 29.8381 and 26.5697 and 49.6192 and 42.8896 and 44.0078
MTT, relative to control (0 = 100) ([5]; A549, 2 000 b/j, 1000 μM, průměr (mean), sheet E-Bp4eS): 20.68
MTT, relative to control (0 = 100) ([5]; A549, 2 000 b/j, 1000 μM, single experiment (date), sheet E-Bp4eS): 19.2379 and 16.653 and 18.6303 and 21.7843 and 27.0728
IC50 ([5]; A549, 2 000 b/j, single experiment (date), sheet E-Bp4eS): 234 µM and 239 µM and 259 µM and 291 µM
Therapeutic index, IC50 non-cancerous cells / IC50 neoplastic cells ([5]; H9c2/A549): 3.6
IC50 ([5]; Homo sapiens, A549, A549, 2 000 b/j, single experiment (date), sheet E-Bp4eS): 217 µM
